{
  "source": "patent US20250177357A1",
  "about": "“METHODS FOR TREATING HYPERTROPHIC CARDIOMYOPATHY” (priority 2021, published 2025)",
  "format_in_all_cases": "in vivo, human",
  "key": {"[1]": {"system": "patients with symptomatic obstructive HCM (oHCM) receiving disopyramide", "assay": "Phase 2 trial in oHCM, Cohort 3: CK-274 in combination with disopyramide", "from_the_text": "Cohort 3 included patients receiving disopyramide.\nBody weight was ≥45 kg at screening; 4. […] Adequate acoustic windows for echocardiography; 6. Had LVOT-G during screening as follows for Cohorts 1 and 2: (a) resting gradient≥50 mmHg; or (b) resting gradient≥30 mmHg and <50 mmHg with post-Valsalva LVOT-G≥50 mmHg; or as follows for Cohort 3: persistent resting LVOT obstruction (≥30 mmHg) and provoked LVOT obstruction (≥50 mmHg); 7. Left ventricular ejection fraction (LVEF)≥60% at screening; 8. […] Taking stable doses of disopyramide for >4 weeks prior to screening (Cohort 3 only).\n(§1) Patients up-titrated to Dose 2 if either of the following conditions were met on echocardiography: (1) resting LVOT-G≥30 mmHg and the biplane LVEF≥50%; or (2) resting LVOT-G<30 mmHg, post-Valsalva LVOT-G≥50 mmHg, and the biplane LVEF≥50%. Otherwise, the patient remains on Dose 1. If LVEF is <50% at Week 2, the patient was down-titrated to placebo.\nOverall, treatment duration for each patient in the study was 10 weeks with an echocardiogram conducted 2 weeks after the last dose. Efficacy endpoints included resting and provoked LVOT gradients, NYHA class, and NT-proBNP."}, "[2]": {"system": "patients with symptomatic obstructive HCM (oHCM)", "assay": "Phase 2 trial in oHCM: safety", "from_the_text": "as §1\nPatients were escalated to the next higher dose if either of the following conditions were met on echocardiography: (1) resting LVOT-G≥30 mmHg and the biplane LVEF≥50%; or (2) resting LVOT-G<30 mmHg, post-Valsalva LVOT-G≥50 mmHg, and the biplane LVEF≥50%. Otherwise, the patient remained on the same dose. If LVEF was <50% at Week 4, the patient was returned to a prior dose level or to placebo if the patient was on Dose 1."}, "[3]": {"assay": "Phase 1 plasma pharmacokinetics, multiple-ascending dose cohorts", "settings": "for CLss/F, mean ± SD: n = 6", "experimental": "Multiple-ascending dose (MAD) cohorts. The MAD cohorts also used a randomized, double-blind, placebo-controlled, sequential design.\nPharmacokinetic analyses. For all study groups, blood samples for PK assessment were obtained pre-dose, up to 12 times daily on day 1, and then at regular intervals throughout the study. Blood samples were collected according to the following schedule: SAD Cohorts: Day 1: pre-dose and 0.25, 0.5, 1, 1.5, 2, 2.5, 3, 4, 6, 8, 12, 16, 24, 36, 48, 72, 96, and 216 h post dose. MAD Cohorts (14-day Dosing): Day 1: pre-dose and 0.25, 0.5, 1, 1.5, 2, 2.5, 3, 4, 6, 8, and 12 h post dose; Days 2, 4, 5, 6, and 9: pre-dose (corresponding to trough samples following dosing on days 1, 3, 4, 5, and 8) and 1.5 h post dose; Days 3, 7, 8, 10, 11, 12, and 13: pre-dose (corresponding to trough samples following dosing on days 2, 6, 7, 9, 10, 11, and 12); Day 14: pre-dose and 0.25, 0.5, 1.5, 2, 2.5, 3, 4, 6, 8, 12, 16, 24, 36, 48, 72, and 168 h post dose. MAD Cohort (17-Day Dosing): Day 1: pre-dose and 0.25, 0.5, 1, 1.5, 2, 2.5, 3, 4, 6, 8, and 12 h post dose; Days 2, 4, 5, 6, and 9: pre-dose (corresponding to trough samples following dosing on days 1, 3, 4, 5, and 8) and 1.5 h post dose; Days 3, 7, 8, 10, 11, 12, 13, 14, 15, and 16: pre-dose (corresponding to trough samples following dosing on days 2, 6, 7, 9, 10, 11, and 12); Day 17: pre-dose and 0.25, 0.5, 1.5, 2, 2.5, 3, 5, 7, 9, 12, 24, 36, 48, 72, and 168 h post dose. CYPD6-PM Cohort: Day 1: pre-dose and 0.25, 0.5, 1, 1.5, 2, 2.5, 3, 4, 6, 8, 12, 16, 24, 36, 48, 72, 96, 216, 312, and 552 h post dose. Food-Effect Cohort: Day 1: pre-dose and 0.25, 0.5, 1, 1.5, 2, 2.5, 3, 4, 6, 8, 12, 16, 24, 36, 48, 72, 96, 144, and 216 h post dose. Standard non-compartmental methods were used to calculate PK parameters using Phoenix® WinNonlin® Version 7.0; actual sample collection times were utilized.\nFor the MAD cohort, the parameters were AUC24 and Cmax on day 1, plus AUC to the […] (AUCtau) and Cmax on day 14 or 17. The statistical linear relationship between the ln-transformed PK parameters and the ln-transformed dose was verified by including the quadratic (ln Dose)^2 and cubic (ln Dose)^3 effects. […] The dose-proportionality analysis was performed using SAS® PROC MIXED.\nAn analysis of variance (ANOVA) model was conducted separately for each dose level; day was included as the fixed effect. Helmert contrasts were developed such that each time-point was compared with the mean of the subsequent time-points."}},
  "data": [
    {"compound": "CCc1nc(-c2ccc3c(c2)CC[C@H]3NC(=O)c2cnn(C)c2)no1", "note": "[aficamten, (R)—N-(5-(5-ethyl-1,2,4-oxadiazol-3-yl)-2,3-dihydro-1H-inden-1-yl)-1-methyl-1H-pyrazole-4-carboxamide]", "values": [
      {"measurement": "Moderate adverse events recorded", "setting": "[1]; Cohort 3", "value": "six"},
      {"measurement": "New York Heart Association functional class", "setting": "[1]; Cohort 3", "value": "improved in the majority of patients"},
      {"measurement": "Patients whose LVEF fell below the safety threshold of 50%", "setting": "[1]; Cohort 3", "value": "no patients"},
      {"measurement": "Serious adverse events attributed to treatment", "setting": "[1]; Cohort 3", "value": "no serious adverse events attributed to treatment"},
      {"measurement": "Average resting and post-Valsalva LVOT-G", "setting": "[1]; Cohort 3, 5, 10, 15 mg, 10 weeks", "value": "substantial reductions"},
      {"measurement": "Patients with AEs related to study drug (per investigator)", "setting": "[1]; Cohort 3, 13 patients", "value": "2 (15.4) N (%)"},
      {"measurement": "Patients with TEAEs leading to drug interruption or termination", "setting": "[1]; Cohort 3, 13 patients", "value": "0 N (%)"},
      {"measurement": "Patients with TESAEs", "setting": "[1]; Cohort 3, 13 patients", "value": "0 N (%)"},
      {"measurement": "Patients with at least one TEAE", "setting": "[1]; Cohort 3, 13 patients", "value": "9 (69) N (%)"},
      {"measurement": "Patients with fatal TEAEs", "setting": "[1]; Cohort 3, 13 patients", "value": "0 N (%)"},
      {"measurement": "TEAE of LVEF <50% (Core Lab)", "setting": "[1]; Cohort 3, 13 patients", "value": "0 N (%)"},
      {"measurement": "Adverse events of asymptomatic atrial fibrillation", "setting": "[1]; Cohort 3, patient with known prior history", "value": "One"},
      {"measurement": "Effect on LVOT-G compared with Cohort 1 patients (same CK-274 dose)", "setting": "[1]; Cohort 3, patients treated with disopyramide", "value": "mostly attenuated"},
      {"measurement": "Patients with LVEF <50%", "setting": "[2]; Cohort 1", "value": "No patients"},
      {"measurement": "Patients with AEs related to study drug (per investigator)", "setting": "[2]; Cohort 1, 21 randomized", "value": "3 (14.3) N (%)"},
      {"measurement": "Patients with TEAEs leading to drug interruption or termination", "setting": "[2]; Cohort 1, 21 randomized", "value": "0 N (%)"},
      {"measurement": "Patients with TESAEs", "setting": "[2]; Cohort 1, 21 randomized", "value": "2 (9.5) N (%)"},
      {"measurement": "Patients with at least one TEAE", "setting": "[2]; Cohort 1, 21 randomized", "value": "17 (81) N (%)"},
      {"measurement": "Patients with fatal TEAEs", "setting": "[2]; Cohort 1, 21 randomized", "value": "0 N (%)"},
      {"measurement": "TEAE of LVEF <50% (Core Lab)", "setting": "[2]; Cohort 1, 21 randomized", "value": "0 N (%)"},
      {"measurement": "Patients with AEs related to study drug (per investigator)", "setting": "[2]; Cohort 2, 20 randomized", "value": "1 (5.0) N (%)"},
      {"measurement": "Patients with TEAEs leading to drug interruption or termination", "setting": "[2]; Cohort 2, 20 randomized", "value": "0 N (%)"},
      {"measurement": "Patients with TESAEs", "setting": "[2]; Cohort 2, 20 randomized", "value": "0 N (%)"},
      {"measurement": "Patients with at least one TEAE", "setting": "[2]; Cohort 2, 20 randomized", "value": "15 (75) N (%)"},
      {"measurement": "Patients with fatal TEAEs", "setting": "[2]; Cohort 2, 20 randomized", "value": "0 N (%)"},
      {"measurement": "TEAE of LVEF <50% (Core Lab)", "setting": "[2]; Cohort 2, 20 randomized", "value": "2 (10) N (%)"},
      {"measurement": "Patients with transient LVEF reduction to <50% requiring down titration", "setting": "[2]; Cohort 2, on 20 mg, remaining above 40%", "value": "one patient"},
      {"measurement": "Interruptions or discontinuations of treatment", "setting": "[2]; Cohorts 1 and 2", "value": "No interruptions or discontinuations"},
      {"measurement": "Treatment-related serious adverse events", "setting": "[2]; Cohorts 1 and 2, 10 weeks, listed as CK-274", "value": "no treatment related serious adverse events"},
      {"measurement": "Patients with AEs related to study drug (per investigator)", "setting": "[2]; Total, 54 patients", "value": "6 (11.1) N (%)"},
      {"measurement": "Patients with TEAEs leading to drug interruption or termination", "setting": "[2]; Total, 54 patients", "value": "0 N (%)"},
      {"measurement": "Patients with TESAEs", "setting": "[2]; Total, 54 patients", "value": "2 (3.7) N (%)"},
      {"measurement": "Patients with at least one TEAE", "setting": "[2]; Total, 54 patients", "value": "41 (75.9) N (%)"},
      {"measurement": "Patients with fatal TEAEs", "setting": "[2]; Total, 54 patients", "value": "0 N (%)"},
      {"measurement": "TEAE of LVEF <50% (Core Lab)", "setting": "[2]; Total, 54 patients", "value": "2 (3.7) N (%)"},
      {"measurement": "Time for LVEF to return towards baseline", "setting": "[2]; both cohorts", "value": "within two weeks after the end of treatment"},
      {"measurement": "Steady state achieved by the end of day", "setting": "[3]; 5-mg and 7.5-mg doses once daily", "value": 12, "unit": "days"},
      {"measurement": "Steady state achieved by the end of day", "setting": "[3]; 10-mg dose once daily", "value": 10, "unit": "days"},
      {"measurement": "CLss/F, mean ± SD", "setting": "[3]; Day 14, 5 mg qd × 14 Days", "value": "3.9 ± 0.9", "unit": "L/h"},
      {"measurement": "CLss/F, mean ± SD", "setting": "[3]; Day 14, 10 mg qd × 14 Days", "value": "3.9 ± 0.8", "unit": "L/h"},
      {"measurement": "CLss/F, mean ± SD", "setting": "[3]; Day 17, 7.5 mg qd × 17 Days", "value": "3.1 ± 0.7", "unit": "L/h"},
      {"measurement": "Time within which steady state is achieved", "setting": "[3]; once-daily dosing", "value": "≤ 2", "unit": "weeks"}
    ]}
  ]
}
